What is called IC50 is the midpoint of a concentration-inhibition curve. Low values mean greater potency in that assay, high ones weaker potency in that assay.

Where a name gives a salt, the structure may show the parent alone.

This passage reports IC50 results from BindingDB's records for doi:10.7270/Q23F4N3R (Burnham Center For Chemical Genomics, 2011).

A short description of the first assay: HK1 enzyme inhibitors – biochemical, selectivity assay for HKDC1 inhibitor project, dose response (AID 504763).
Conditions: not given
`CN1c2ccc(C=O)c3c(C=O)ccc(c23)N(C)C1(C)C` [1,2,2,3-tetramethyl-2,3-dihydro-1H-perimidine-6,7-dicarbaldehyde] returned an IC50 of 18.8 µM.
On to `O=C(C=Cc1ccc(Br)cc1)NC(=S)Nc1ccc(S(=O)(=O)Nc2nccs2)cc1` [(E)-3-(4-bromophenyl)-N-[[4-(1,3-thiazol-2-ylsulfamoyl)phenyl]carbamothioyl]prop-2-enamide], for which the IC50 is > 80 µM.
The same measure, in the same setting: under `CC1=NOC(=O)/C1=C\c1ccc(-c2ccc(Cl)cc2Cl)o1` [4-{[5-(2,4-dichlorophenyl)-2-furyl]methylene}-3-methyl-5(4H)-isoxazolone] stands > 80 µM.
For `CCN(CC)CCCNC(=O)c1c(O)c2ccccc2n(Cc2ccccc2)c1=O` [N-[3-(diethylamino)propyl]-2-oxidanyl-4-oxidanylidene-1-(phenylmethyl)quinoline-3-carboxamide;hydrochloride], the IC50 is > 80 µM.
As for `O=C1C(Nc2ccccc2)=CC(=NS(=O)(=O)c2cccs2)c2ccccc21` [MLS000374486], the half-maximal inhibitory concentration (IC50) was determined as 6.56 µM.
Still for that read-out and setting: to `CCc1ccc(S(=O)(=O)N=C2C=C(Nc3ccc(C(=O)O)cc3)C(=O)c3ccccc32)cc1` belongs 6.89 µM; to `CC(=O)NC1C(=O)N(CCN2CCOCC2)c2ccc(F)cc21` (configuration not stated) [MLS001215963], > 80 µM; to `COC1=CC(=O)C=C(OC)C1=O` [MLS002207260], 3.54 µM.
Turning to `COC1=C(OC)C(=O)C(Sc2ccc3ccccc3c2)=CC1=O` [2,3-dimethoxy-5-naphthalen-2-ylsulfanylcyclohexa-2,5-diene-1,4-dione], the midpoint of inhibition, the IC50, lay at 7.15 µM.
Still for that read-out and setting: under `CC(C)c1nc2oc3c(NCCO)ncnc3c2c2c1COC(C)(C)C2` [SMR000439744] stands 2.82 µM; under `O=C(/C=C/c1cccs1)Nc1scc(-c2ccccc2)c1C(=O)O` [SMR000364116], > 80 µM; under `Cc1cc(C(F)F)n2ncc(C(=O)NCCc3ccc(Cl)cc3)c2n1` [N-[2-(4-chlorophenyl)ethyl]-7-(difluoromethyl)-5-methylpyrazolo[1,5-a]pyrimidine-3-carboxamide], 9.04 µM.
On the same count and under the same terms, under `CC(C)(C)c1c(Cl)c(O)c(-c2ccccc2)c(=O)n1-c1ccccc1` [2-tert-butyl-3-chloranyl-6-oxidanyl-1,5-diphenyl-pyridin-4-one] stands > 80 µM.
Consider `Cc1cc(C)c(S(=O)(=O)Nc2cc(SCC(=O)O)c(O)c3ccccc23)cc1C` [2-[1-hydroxy-4-[(2,4,5-trimethylphenyl)sulfonylamino]naphthalen-2-yl]sulfanylacetic acid], for which half-maximal inhibition (IC50) was put at 14.2 µM.
Same read-out and setting: under `Cc1cc(C)n2cc(CSc3nnc(-c4ccccc4)c(-c4ccccc4)n3)nc2n1` [2-[(5,6-diphenyl-1,2,4-triazin-3-yl)sulfanylmethyl]-5,7-dimethyl-imidazo[1,2-a]pyrimidine] stands 11.4 µM; under `O=C(NC1=C(NC2CCS(=O)(=O)C2)C(=O)c2ccccc2C1=O)c1ccccc1` (configuration not stated) [N-[3-[(1,1-dioxo-3-thiolanyl)amino]-1,4-dioxo-2-naphthalenyl]benzamide], 6.33 µM; under `Cc1ccc(C)c(-n2c3nc(=O)[nH]c(=O)c-3cc3cc([N+](=O)[O-])ccc32)c1` [10-(2,5-Dimethyl-phenyl)-7-nitro-10H-pyrimido[4,5-b]quinoline-2,4-dione], > 80 µM.
The same measure, in the same setting: to `Cc1ccc(-n2c3nc(=O)[nH]c(=O)c-3cc3cc([N+](=O)[O-])ccc32)cc1` [10-(4-methylphenyl)-7-nitropyrimido[4,5-b]quinoline-2,4-dione] belongs 19.4 µM; to `Cc1ccc(/N=C/C2=CC(Cc3ccccc3Cl)C=C([N+](=O)[O-])C2=O)c(O)c1` (configuration not stated), > 80 µM.
For `COc1cc(/C=C2\SC(c3ccc(C)cc3)=NC2=O)ccc1O` [MLS000579809], the half-maximal inhibitory concentration (IC50) was > 80 µM.
`CCCCNC(=O)c1sc(=S)n2c1[nH]c(=O)c1ccccc12` [N-butyl-5-oxo-1-thioxo-4,5-dihydro[1,3]thiazolo[3,4-a]quinazoline-3-carboxamide]: inhibition was half-maximal at 16.1 µM (IC50).
Same read-out and setting: under `Nc1c(Br)cc2c3c(cccc13)-c1ccccc1-2` [MLS002694423] stands 9.59 µM.
`COc1ccc(NC(=O)Cc2c[nH]c3ccccc23)cc1S(=O)(=O)N1CCCCC1` [2-(1H-indol-3-yl)-N-(4-methoxy-3-piperidin-1-ylsulfonylphenyl)acetamide]: the IC50 was > 80 µM.
On the same count and under the same terms, to `O=C1C(Nc2ccc(O)cc2)=CC(=NS(=O)(=O)c2cccs2)c2ccccc21` [MLS000775432] belongs 6.28 µM.
On the same count and under the same terms, to `O=C(O)CSc1cc(NS(=O)(=O)c2ccc(Cl)cc2)c2ccccc2c1O` [2-[4-[(4-chlorophenyl)sulfonylamino]-1-hydroxynaphthalen-2-yl]sulfanylacetic acid] belongs 16.7 µM; to `Cc1ccc(N2C(=O)NC(=O)C(=Cc3cc(C)n(-c4sc5c(c4C#N)CCCC5)c3C)C2=O)cc1`, > 80 µM.
On the same count and under the same terms, under `O=C1C(N2CCOCC2)=C(n2nnc3ccccc32)C(=O)c2ccccc21` [2-(1-benzotriazolyl)-3-(4-morpholinyl)naphthalene-1,4-dione] stands 7.58 µM; under `O=c1c2ccccc2nc(/C=C/c2cccnc2)n1Cc1ccccc1` [MLS000709026], > 80 µM; under `Cc1cc(Oc2ccc(C(C)(C)C)cc2)nc(N2CCOCC2)n1` [4-[4-(4-tert-butylphenoxy)-6-methylpyrimidin-2-yl]morpholine], > 80 µM.
In turn, `Cc1ccc(S(=O)(=O)N=C2C=C(Nc3cccc(C(=O)O)c3)C(=O)c3ccccc32)cc1` [MLS000948051] displayed an IC50 of 6.79 µM.
On to `O=Cc1[nH]c2ccccc2c1N(C(=O)CCl)c1ccccc1` [MLS001029456], for which the IC50 was > 80 µM.
Same read-out and setting: under `NC(=O)C1CCN(C2=C(Cl)C(=O)c3ccccc3C2=O)CC1` [SMR000180199] stands > 80 µM.
Turning to `O=C1C=C(c2c(O)ccc3ccccc23)c2ccccc2C1=O` [4-(2-hydroxy-1-naphthalenyl)naphthalene-1,2-dione], the IC50 was 5.1 µM.
Same read-out and setting: under `Cc1cc2nnc(SCC(=O)Nc3cc(S(=O)(=O)N4CCOCC4)ccc3Cl)n2c2ccccc12` [N-(2-chloro-5-morpholin-4-ylsulfonylphenyl)-2-[(5-methyl-[1,2,4]triazolo[4,3-a]quinolin-1-yl)sulfanyl]acetamide] stands 18 µM; under `COc1ccc2cc(CCNC(=O)c3ccc(S(=O)(=O)N4CCCC4)cc3)c(O)nc2c1` [SMR000805966], 7.34 µM.
The same measure, in the same setting: to `COC(=O)C[C@]1(C(=O)OC)CN(C#N)N(c2ccc(Cl)cc2)C12c1ccccc1-c1ccccc12` [methyl 1-(4-chlorophenyl)-2-cyano-4-(2-methoxy-2-oxoethyl)spiro[pyrazolidine-5,9'-(9'H)-fluorene]-4-carboxylate] belongs > 80 µM; to `Cc1ccccc1NC1=CC(=NS(=O)(=O)c2ccc(C(=O)O)cc2)c2ccccc2C1=O` [4-[(E)-[3-(2-methylanilino)-4-oxonaphthalen-1-ylidene]amino]sulfonylbenzoic acid], 2.84 µM.
On the same count and under the same terms, to `O=C1C(SCCO)=C(SCCO)C(=O)c2ccccc21` [NSC-95397] belongs 8.11 µM; to `COc1ccc2[nH]c3c4c(ccc3c2c1)C(=O)C=CC4=O` [8-methoxy-11H-benzo[a]carbazole-1,4-dione], > 80 µM.
Regarding `O=C(NCCc1ccccc1)C(c1cccs1)N(C(=O)CCl)c1ccc(Cl)cc1` (configuration not stated) [2-(4-chloro-N-(2-chloro-1-oxoethyl)anilino)-N-(2-phenylethyl)-2-thiophen-2-ylacetamide], the IC50 is > 80 µM.
In the case of `COc1ccc(NC(=O)CSc2ccc(-c3ccco3)nn2)cc1OC` [MLS-0374858.0001], 17.7 µM corresponded to half-maximal inhibition (IC50).
As to `CCOC(=O)C1=C(Cc2ccc(OC)cc2)C(=O)c2ccccc2C1=O` [SMR000136995], the IC50 was 12.8 µM.
`O=c1c2ccccc2nc(/C=C/c2cccnc2)n1CCc1ccccc1`: the half-maximal inhibitory concentration (IC50) is > 80 µM.
Still for that read-out and setting: to `CCc1nc2c(c(=O)c3ccccc3n2C)c(=O)n1-c1ccc(F)cc1` [SMR000221205] belongs 8.41 µM.

The same assay, now with this note: inactive by the depositor's call.
In turn, `COc1ccc(N2C3=C(CC4=C2CCCC4=O)C(=O)CCC3)cc1` [10-(4-methoxyphenyl)-3,4,6,7,9,10-hexahydro-1,8(2H,5H)-acridinedione] displayed an IC50 of 24 µM.
The same measure, in the same setting: to `Cc1cc(C)n2nc(SCc3nnc(SCc4ccccc4Cl)s3)nc2n1` belongs 23.2 µM; to `O=S(=O)(Nc1ccc(O)c2ccccc12)c1cccs1` [N-(4-oxidanylnaphthalen-1-yl)thiophene-2-sulfonamide], 55.3 µM.
`COc1ccc(C(=O)c2coc3c2C(=O)C(=O)c2ccccc2-3)cc1` [3-(4-Methoxy-benzoyl)-naphtho[1,2-b]furan-4,5-dione]: the IC50 turned out to be 27.2 µM.
In turn, `CCCc1nc2oc3c(NCC4CCCO4)ncnc3c2c2c1COC(C)(C)C2` (configuration not stated) [MLS000042555] showed an IC50 of 31.6 µM.
In turn, `Cc1ccc(-n2c3nc(=O)[nH]c(=O)c-3cc3cc([N+](=O)[O-])ccc32)cc1C` showed a concentration for half-maximal inhibition (IC50) of 36.6 µM.
On to `COP(=O)(OC)c1ccc(NCc2cc(O)ccc2O)cc1` [MLS002702382], for which the half-inhibitory concentration (IC50) amounted to 26.2 µM.
For the molecule `COC1=CC(=O)C(C2CC(=O)c3c(O)cc(O)cc3O2)=CC1=O` (configuration not stated) [SMR001565628], the IC50 amounted to 35.9 µM.
On the same count and under the same terms, under `COc1cc2c(cc1OC)-c1cc(NCc3ccccn3)nc(=O)n1CC2` [9,10-dimethoxy-2-(2-pyridinylmethylamino)-6,7-dihydropyrimido[6,1-a]isoquinolin-4-one] stands 67.4 µM; under `COc1ccc(NC(=O)CSc2ccc(-c3cccnc3)nn2)c(OC)c1` [N-(2,4-dimethoxyphenyl)-2-[[6-(3-pyridinyl)-3-pyridazinyl]thio]acetamide], 21.5 µM.
In turn, `CCOC(=O)C1=C(Cc2ccc(Cl)cc2)C(=O)c2ccccc2C1=O` [ethyl 3-[(4-chlorophenyl)methyl]-1,4-bis(oxidanylidene)naphthalene-2-carboxylate] showed an IC50 of 22.2 µM.
The same measure, in the same setting: to `Cc1cc(C)c(S(=O)(=O)N=C2C=C(Nc3ccc(C(=O)O)cc3)C(=O)c3ccccc32)c(C)c1` [MLS000948031] belongs 27.3 µM; to `CCOc1ccccc1Nc1nnc(SCc2nnc(-c3cc(OC)c(OC)c(OC)c3)o2)s1` [N-(2-ethoxyphenyl)-5-[[5-(3,4,5-trimethoxyphenyl)-1,3,4-oxadiazol-2-yl]methylthio]-1,3,4-thiadiazol-2-amine], 21.8 µM.
